Publication PMC7679387, “VZHE-039, a novel antisickling agent that prevents erythrocyte sickling under both hypoxic and anoxic conditions” (Scientific Reports, 2020)
“Also recorded” adds a separate entry of the source.

Key:
SS cells = assay: Antisickling activity under anoxia (100% N2); assay type: cell-based, human; settings: 2 mM, 100% N2 gas, 30 min
From the text: Therefore, another objective in the targeted design of VZHE-039 was to complement its O2-dependent antisickling activity—common to this class of aromatic aldehydes—with an improved O2-independent antisickling activity through proximity-enhanced auxiliary interactions with the αF-helix. Findings from the VZHE-039 crystallographic studies indicate that we achieved the structural objective of enhanced interactions between the methylhydroxy substituent and the αF-helix. We further asked whether these enhanced interactions would translate to an improvement in the O2-independent antisickling activity—as hypothesized. We therefore explored the potential O2-independent activity of VZHE-039, by testing its antisickling properties under complete deoxygenated/anoxic conditions (i.e., 100% N2). […] For internal control purposes, aliquots from samples used for testing for antisickling studies at 2.5% O2 (see above) were also used for testing the antisickling effect of these compounds under 100% N2 gas, therefore, helping elucidate the antisickling effects due to O2-dependent activity of the compounds. Since this experimental design utilized aliquots of the same samples under different gas conditions, it ensured that the assay was free of any potential errors associated with variability in hematocrit and accuracy in drug concentrations.
We conducted two studies to test the antisickling property of VZHE-039 under anoxia to establish the secondary mechanism of action. In the first study, we conducted antisickling studies as described above and also previously reported (2.5% O2)[33], using 2 mM concentrations of VZHE-039, and the controls vanillin, TD-7 and Voxelotor. After 1 h, aliquot samples were fixed with 2% glutaraldehyde without exposure to air. Then the incubation chamber was opened and exposed to air for 15 min to ensure complete re-oxygenation and reversal of the sickled cells to normal round cells. Reversal was confirmed by microscopy. The incubation chamber was then closed, and the assay was repeated under 100% nitrogen gas for 30 min, at which point aliquots were obtained and fixed. Aliquot samples were then subjected to microscopic morphological analysis of bright field images as previously described. Resulting sickled cells (percentages) were compared across samples, and between aliquots of the same samples that had been obtained either under 2.5% oxygen or 100% nitrogen.

CYP2B6 = molecular target: T1, CYP2B6 (Homo sapiens, UniProt P20813); assay: In vitro CYP inhibition, pooled human liver microsomes; assay type: in vitro ADME; settings: substrate Bupropion
T1 construct: 0.2–0.5 mg/mL pooled human liver microsomes; from tissue; host or cells: pooled human liver microsomes
T1 sequence (P20813 1-491): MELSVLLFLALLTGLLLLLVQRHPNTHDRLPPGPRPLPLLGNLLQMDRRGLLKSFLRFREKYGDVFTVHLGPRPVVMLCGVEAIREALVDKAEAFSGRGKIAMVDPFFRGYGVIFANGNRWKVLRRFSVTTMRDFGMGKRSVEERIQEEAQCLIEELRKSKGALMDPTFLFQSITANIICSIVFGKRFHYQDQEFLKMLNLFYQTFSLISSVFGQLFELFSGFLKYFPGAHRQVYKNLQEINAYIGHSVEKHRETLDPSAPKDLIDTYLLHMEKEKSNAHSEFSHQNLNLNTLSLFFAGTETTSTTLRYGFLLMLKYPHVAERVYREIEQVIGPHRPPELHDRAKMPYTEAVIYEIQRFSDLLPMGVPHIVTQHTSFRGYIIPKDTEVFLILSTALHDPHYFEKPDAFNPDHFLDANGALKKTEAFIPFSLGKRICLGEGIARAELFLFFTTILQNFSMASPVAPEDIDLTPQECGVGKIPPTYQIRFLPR
Method: (§1) Next, we tested VZHE-039 at concentrations of 0.1 to 100 µM, considered to be biologically relevant unbound plasma concentrations, for possible CYP inhibition using pooled human liver microsomes and isozyme-specific probe substrates (CYP1A2, CYP2C8, CYP2C9, CYP2C19, CYP2D6, CYP3A4, CYP2B6)[55].
(§2) VZHE-039 was studied for its inhibitory potential of seven major drug metabolizing human cytochrome P450 (CYP) enzymes (CYP1A2, CYP2C8, CYP2C9, CYP2C19, CYP2D6, CYP3A4, CYP2B6) using pooled human liver microsomes as published previously[26],[55]. The probe substrates include tacrine (CYP1A2), amodiaquine (CYP2C8), tolbutamide (CYP2C9), mephenytoin (CYP2C19), dextromethorphan (CYP2D6), midazolam (CYP3A4), testosterone (CYP3A4), and bupropion (CYP2B6). […] Assay conditions were optimized for each human cytochrome P450 substrate. The optimized reaction mixtures (200 μL) contained a final concentration of 0.2–0.5 mg/mL pooled human liver microsomes, 2 mM NADPH in 100 mM potassium phosphate, pH 7.4 buffer with 5 mM MgCl2, and VZHE-039 concentration of 0.1 to 100 µM. The assays were performed in duplicate in 96-well plates at 37 °C for 10–60 min. The reaction was terminated with addition of methanol, followed by incubation at 4 °C for 10 min and centrifuged at 4 °C for 10 min. Effect of VZHE-039 on formation of the respective probe substrate metabolites (velnacrine, N‐desethylamodiaquine, 4-hydroxytolbutamide, 4′-hydroxymephenytoin, dextrophan, 1′-hydroxymidazolam, and 6β-hydroxtestosterone and hydroxybupropion) were determined using LC–MS/MS.

CYP2C8 = molecular target: T2, CYP2C8 (Homo sapiens, UniProt P10632); assay: as above; assay type: in vitro ADME; settings: substrate Amodiaquine
T2 construct: 0.2–0.5 mg/mL pooled human liver microsomes; from tissue; host or cells: pooled human liver microsomes
T2 sequence (P10632 1-490): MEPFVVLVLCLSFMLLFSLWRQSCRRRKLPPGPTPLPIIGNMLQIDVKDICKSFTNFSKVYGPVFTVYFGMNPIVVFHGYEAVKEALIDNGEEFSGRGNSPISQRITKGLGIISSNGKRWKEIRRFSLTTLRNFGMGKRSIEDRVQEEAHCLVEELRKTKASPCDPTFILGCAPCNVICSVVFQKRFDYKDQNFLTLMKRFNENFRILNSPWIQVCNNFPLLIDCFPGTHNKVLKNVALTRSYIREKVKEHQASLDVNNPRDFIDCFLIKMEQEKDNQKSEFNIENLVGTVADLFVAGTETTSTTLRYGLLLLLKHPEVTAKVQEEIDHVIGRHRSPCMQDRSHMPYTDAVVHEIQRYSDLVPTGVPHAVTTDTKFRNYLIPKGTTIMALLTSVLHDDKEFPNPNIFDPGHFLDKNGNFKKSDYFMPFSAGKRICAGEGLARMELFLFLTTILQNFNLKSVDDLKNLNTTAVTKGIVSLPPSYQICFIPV
Method: as §1, §2

IC50 (CYP2B6): 41.4 µM
IC50 (CYP2C8): > 100 µM
Compound: O=Cc1c(O)cccc1OCc1cccc(CO)n1 [VZHE-039, 2-((6-(Hydroxymethyl)pyridin-2-yl)methoxy)-6-hydroxybenzaldehyde]
Antisickling effect under anoxia (in words) (SS cells): inhibited sickling under complete anoxia; also recorded: identical antisickling effects for VZHE-039 under either hypoxia or anoxia
